In patent publication US20040121965A1, “Method of treating resistant tumors” (Wyeth Holdings Corporation, priority 2002, published 2004):
Read-outs that look alike come from different tables or passages of the source.

How the values were obtained:
KB-3-1 = test: Cell survival assay (SRB), KB-3-1; type: cell-based, human
Outline: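 Cells were exposed to serially diluted compound in duplicate for 3 days. Survival was read as protein content by SRB (TCA fixation 1 hr at 4 °C, 0.04% SRB stain, dissolved in 10 mM Tris, absorbance). KB-3-1 was grown in 20% FCS. IC50 is the concentration giving 50% growth inhibition.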

KB-V1 (MDR1++) [1] = test: Cell survival assay (SRB), KB-V1 (MDR1++); conditions: for IC50: Homo sapiens; for RR, relative resistance: IC50 KB-V1 / IC50 KB-3-1, Table 3
MX-1W tumor = test: Growth of tumors in nude mice, MX-1W xenograft; type: in vivo
Description: 2.4. Growth of Tumors in Nude Mice.

KB-8-5 (MDR1+) [2] = test: Cell survival assay (SRB), KB-8-5 (MDR1+); conditions: for IC50: Homo sapiens; for RR, relative resistance: IC50 KB-8-5 / IC50 KB-3-1, Table 3
[3] = system: Human Melanoma Carcinoma Lox; conditions: staged LOX xenograft; at MTD ('<': MTD not achieved); days 11-15
Procedure: 2.4. Growth of Tumors in Nude Mice. […] In these experiments, xenografts are implanted subcutaneously into the flanks of nude mice. […] Relative tumor mass compared to controls are assessed during the 21-day post-staging period.
Groups of 5 female nu/nu mice are injected with 1.5×10^6 KB-3-1 (A) or Lox cells (B). […] Relative tumor growth is determined during the experiment and % T/C calculated. Statistical analyses are Student's t-test of treated time points vs. vehicle (*, P<0.05; **, P<0.01)

KB-8-5 (MDR1+) [4] = system: KB-8-5 (MDR1+)
KB-V1 (MDR1++) [5] = system: KB-V1 (MDR1++)
KB-HTI-4.0 = test: Cell survival assay, KB-3-1 line made resistant to Example 129 (KB-HTI-4.0); type: cell-based, human; conditions: for IC50: KB-3-1 line made resistant to Example 129, Table 8, read-out: KB-HTI-4.0 IC50; for (RR) relative resistance vs. parental cells: KB-HTI-4.0 vs KB-3-1
Description: Cells lines with previously known mechanisms of resistance. […] Res. 8: 207-218,1996); KB-3-1 (parental derived from an epidermoid carcinoma), KB-8.5, KB-V1 (Akiyama S-I, Fojo A, Hanover J A, Pastan I, Gottesman M M. Isolation and genetic characterization of human KB cell lines resistant to multiple drugs. Somatic Cell Mol. Gen., 11: 117-126,1985; Shen D-W, Cardarelli C, Hwang J, Cornwell M, Richert N, Ishii S, Pastan I, Gottesman MM. […] J. Biol. Chem., 261: 7762-7770, 1986); and HL-60 (parental derived from human leukemia) and HL60/AR (McGrath T., Center M. S. Adriamycin resistance in HL60 cells in the absence of detectable P-glycoprotein. Biochem. Res. Commun., 145:1171-1176,1987); A549 and A549.EpoB40 (He L., Yang C.-P.H., Horwitz S. B. Mutations in p-tubulin map to domains involved in regulation of microtubule stability in epothilone-resistant cell lines. Molecular Cancer Therapeutics. 1: 3-10, 2001). HCT-15 human colon carcinoma and DLD-1 human colon carcinoma are obtained from American Tissue Culture Collection. The MX-1W carcinoma is a Wyeth variant orginally obtained as MX-1 breast carcinoma from the National Cancer Institute. Cell lines selected for resistance to Representative Example 129. KB-3-1 cells are selected for resistance to Example 129 by chronically exposing cells to increasing concentrations of Example 129.
2.2. Cell Survival Assay: Standard Pharmacological Test Procedure. The concentration of candidate inhibitor required to inhibit 50% of cell growth (IC50) is done according to previously reported methods. […] Compounds are serially diluted into media as 2× stocks and 100 μl added to cells in duplicate. Compounds are incubated with cells for 3 days. At the end of the incubation period the sulforhodamine B (SRB) assay, which measures protein content as an assessment of cell survival, is performed as described previously (Skehan P, Storeng R, Scudiero D, Monks A, McMahon J, Vistica D, Warren J T, Bokesch H, Kenney S, Boyd MR. New calorimetric cytotoxicity assay for anticancer-drug screening. J Natl Cancer Inst 1990 Jul 4;82(13):1107-12) with some modification as follows. For KB-3-1 cells with 20% FCS, media is gently decanted and replaced with 200 μl of serum-free media mixed with cold 50% TCA for a final concentration of 10% TCA. The plates are incubated for 1 hr at 4° C., followed by washing 5 times in cold distilled water, then air dried overnight. The fixed cells are stained for 10 min with 80 μl of 0.04% SRB solution prepared in 1% glacial acetic acid. Stain is discarded and plates washed 5 times in 1% glacial acetic acid, then air-dried until completely dry. Stained cell product is dissolved in 150 μl of 10 mM Trizma Base and placed on a shaker for 20 minutes until fully dissolved. Absorbance is read on a Victor V multi-label plate reader (Perkin Elmer, Gaithersburg, Md.).
Cells are selected for resistance to Example 129 to understand the frequency and mechanistic basis of resistance.

KB-PTX-15+099 = test: Cell survival assay, KB-PTX-15+099 (paclitaxel-resistant, non-MDR); type: cell-based, human; conditions: for IC50: KB-PTX-15+099, Table 6, read-out: KB-PTX-15+099 IC50; for Average Relative Resistance (RR): IC50 KB-PTX-15+099 / IC50 KB-3-1, less than 1 = increased sensitivity
[6] = Homo sapiens, KB 3-1, 72 h, amount of drug needed to kill 50% of cells after three days continuous exposure, Table 11, read-out: IC50 in parental cell line KB-3-1
[7] = KB-3-1 cells (paclitaxel-sensitive parent), read-out: In vitro IC50 (nM) KB-3-1

Compound	Ratio KBV1/KB (KB-V1 (MDR1++) [1])	Ratio KB85/KB (KB-8-5 (MDR1+) [2])	IC50 (KB-8-5 (MDR1+) [4]) [nM]	IC50 (KB-3-1; [7]) [nM]	IC50 (KB-V1 (MDR1++) [5]) [nM]	further results
CN[C@H](C(=O)N[C@H](C(=O)N(C)[C@H](/C=C(\C)C(=O)O)C(C)C)C(C)(C)C)C(C)(C)c1cccc(C)c1 [Example 8, N,β,β,3-Tetramethyl-L-phenylalanyl-N^1-[(1S,2E)-3-carboxy-1-isopropyl-2-butenyl]-N^1,3-dimethyl-L-valinamide]	68.5	2.6	–	–	–	IC50 (KB-3-1; [6]): 0.3 nM; IC50 (KB-3-1; Homo sapiens, KB 3-1, KB-3-1 cells (paclitaxel-sensitive parent), read-out: In vitro IC50 (nM) KB-3-1): 0.274 nM; IC50 (KB-V1 (MDR1++) [1]; read-out: In vitro IC50 (nM) KBV1): 18.7 nM; effect on growth of MX-1W (paclitaxel-resistant) tumor (MX-1W tumor; mouse, in vivo): inhibited the growth; Activity in nude mice animal model (% T/C @ MTD on days 11-15) MX-1W (MX-1W tumor; staged MX-1W xenograft, at MTD, days 11-15): 9%; IC50 (KB-8-5 (MDR1+) [2]; MDR1, read-out: In vitro IC50 (nM) KB85): 0.699 nM; Activity in nude mice animal model (% T/C @ MTD on days 11-15) LOX [3]: 2%
CCOC(=O)/C(C)=C/[C@H](C(C)C)N(C)C(=O)[C@@H](NC(=O)[C@H](NC)C(C)(C)c1ccc(C)c(C)c1)C(C)(C)C [Example 13b, N,β,β-3,4-pentamethyl-D-phenylalanyl-N^1-[(1S,2E)4-ethoxy-1-isopropyl-3-methyl4-oxo-2-butenyl]-N^1,3-dimethyl-L-valinamide]	10.2	4.8	1410	295	≥ 3000	–
CN[C@@H](C(=O)N[C@H](C(=O)N(C)[C@H](/C=C(\C)C(=O)O)C(C)C)C(C)(C)C)C(C)(C)c1ccc(OC(C)C)cc1 [Example 69, 0-isopropyl-N,β,β-trimethyl-D-tyrosyl-N^1-[(1S,2E)-3-carboxy-1-isopropylbut-2-enyl]-N^1,3-dimethyl-L-valinamide]	42.6	2.8	151	55	2340	–
CCN(C(=O)[C@@H](NC(=O)[C@@H](NC)C(C)(C)c1ccccc1)C(C)C)[C@H](/C=C(\C)C(=O)O)C(C)C.O=C(O)C(F)(F)F [Example 95, N,β,β-trimethyl-L-phenylananyl-N^1-[(1S,2E)-3-carboxy-1-isopropylbut-2-enyl]-N^1-ethyl-L-valinamide Trifluoroacetic Acid]	66.0	2.1	82	38.6	2550	–
CN[C@H](C(=O)N[C@H](C(=O)N(C)[C@H](/C=C(\C)C(=O)O)C(C)C)C(C)(C)C)C(C)(C)c1ccccc1 [Example 134, (E,4S)-4-[((2S)-3,3-dimethyl-2-{[(2S)-3-methyl-2-(methylamino)-3-phenylbutanoyl]amino}butanoyl)(methyl)amino]-2,5-dimethyl-2-hexenoic Acid]	31.3	1.4	–	–	–	IC50 (KB-8-5 (MDR1+) [4]; human): 39 nM; IC50 (KB-3-1; read-out: In vitro IC50 (nM) KB-3-1): 28 nM; IC50 (KB-V1 (MDR1++) [5]; human): 879 nM
CN[C@H](C(=O)N[C@@H](CCC(=O)O)C(=O)N(C)[C@H](/C=C(\C)C(=O)O)C(C)C)C(C)(C)c1ccccc1 [Example 139, N,β,β-trimethyl-L-phenylalanyl-N^1-[(1S,2E)-3-carboxy-1-isopropyl-2-butenyl]-N^1-methyl-L-alpha-glutamine]	6.0	1.9	975	503	≥ 3000	–
CC(=O)O[C@@]12CO[C@@H]1C[C@H](O)[C@@]1(C)C(=O)[C@H](O)C3=C(C)[C@@H](OC(=O)[C@H](O)[C@@H](NC(=O)OC(C)(C)C)c4ccccc4)C[C@@](O)([C@@H](OC(=O)c4ccccc4)[C@H]21)C3(C)C [docetaxel, reference compound]	–	–	–	–	–	IC50 (KB-HTI-4.0; Homo sapiens): 1.25 ± 0.76 nM; (RR) relative resistance vs. parental cells (KB-HTI-4.0): (3); IC50 (KB-3-1; [6]): 0.6 nM; IC50 (KB-3-1; Homo sapiens, KB-3-1, Table 6, read-out: KB-3-1 IC50): 0.594 ± 0.098 nM; IC50 (KB-3-1; Homo sapiens, KB-3-1 parental, Table 3, read-out: KB-3-1 IC50, nM (N)): 0.55 ± 0.45 nM; IC50 (KB-3-1; Homo sapiens, KB-3-1 parental, Table 8, read-out: KB-3-1 IC50): 0.44 ± 0.2 nM; IC50 (KB-V1 (MDR1++) [1]; read-out: KB-V1 (MDR1++) IC50, nM (N)): 368 ± 257 nM; RR, relative resistance (KB-V1 (MDR1++) [1]): 669; IC50 (KB-PTX-15+099; Homo sapiens): 4.49 ± 1.91 nM; Average Relative Resistance (RR) (KB-PTX-15+099): (7.6); resistance of KB-PTX-15+099 cells (KB-PTX-15+099; vs KB-3-1): 7.6 fold; IC50 (KB-8-5 (MDR1+) [2]; MDR1, read-out: KB-8-5 (MDR1+) IC50, nM (N)): 9.7 ± 6.6 nM; RR, relative resistance (KB-8-5 (MDR1+) [2]): 18; resistance of KB-8-5 cells (KB-8-5 (MDR1+) [2]; KB-8-5 (KB-85) vs KB-3-1, in vitro): 18 fold
CC[C@H](C)[C@@H]([C@@H](CC(=O)N1CCC[C@H]1[C@H](OC)[C@@H](C)C(=O)N[C@@H](Cc1ccccc1)c1nccs1)OC)N(C)C(=O)[C@@H](NC(=O)[C@H](C(C)C)N(C)C)C(C)C [dolastatin-10]	–	–	–	–	–	IC50 (KB-HTI-4.0): 0.83 ± 0.33 nM; (RR) relative resistance vs. parental cells (KB-HTI-4.0): (28); IC50 (KB-3-1; KB-3-1, Table 6, read-out: KB-3-1 IC50): 0.041 ± 0.01 nM; IC50 (KB-3-1; KB-3-1 parental, Table 8, read-out: KB-3-1 IC50): 0.03 ± 0.02 nM; RR, relative resistance (KB-V1 (MDR1++) [1]): 573; Average Relative Resistance (RR) (KB-PTX-15+099): (0.30); IC50 (KB-PTX-15+099): 0.012 ± 0.004 nM; increased sensitivity of KB-PTX-15+099 cells (KB-PTX-15+099; vs KB-3-1): 3.4 fold; RR, relative resistance (KB-8-5 (MDR1+) [2]): 7.1
(2E,4S)4-[{(2R)-2-cyclohexyl-2-[(N,β,1-trimethyl-L-phenylalanyl)amino]ethanoyl}(methyl)amino]-2,5-dimethylhex-2-enoic Acid Trifluoroacetic Acid [Example 98]	–	–	186	133	2940	–
(2E,4S)-2,5-dimethyl4-(methyl{(2S)-2-[(N,β,1-trimethyl-L-phenylalanyl)amino]butanoyl}amino)hex-2-enoic Acid Trifluoroacetic Acid [Example 99]	–	–	87	60	1320	–
(E,4S)-4-[((2S)-3,3-dimethyl-2-{[(2S)-3-methyl-2-(methylamino)-3-(1-methyl-1H-ethyl-1H-indol-3-yl)butanoyl]amino}butanoyl)amino]-2,5-dimethyl-2-hexenoic Acid [Example 132]	–	–	–	0.51	890	–
N,β,β-trimethyl-L-phenylalanyl-N^1-{(1S,2E)-4-[[(1S,2E)-3-carboxy-1-isopropylbut-2-enyl](methyl)amino]-1-isopropyl-3-methyl-4-oxobut-2-enyl-N^1,3-dimethyl-L-valinamide [Example 114]	–	3.5	192	55	> 3000	–
